Test results published in patent publication US20220267271A1, “WNT ACTIVATORS AND METHODS OF USE” (MAYO FOUNDATION FOR MEDICAL EDUCATION AND RESEARCH, priority 2019, published 2022).

Legend:
[1] = test system: BACE1; experiment: BACE1 expression in N2a cells by Western blotting; type: cell-based; conditions: 24 h
Protocol: (A,C) N2a cells were treated with CI-994 at the indicated concentration for 24 h, and the levels of β-catenin (A) and BACE1 (C) were examined by Western blotting. (B,D) The band intensity of β-catenin and BACE1 was quantified and normalized to the corresponding signal for actin. The results represented in the histograms are shown as the mean±SD and are the average of three independent experiments. *P<0.05, **P<0.01 versus corresponding control value.
N2a cells were treated with 1015 and 1020 at the indicated concentrations for 24 h. (A) the levels of BACE1 expression were examined by Western blotting. (B) The intensity of BACE1 bands were quantified and normalized to the corresponding signal for actin. The results represented in the histograms are shown as the mean±SD and are the average of 3-4 independent experiments. *P<0.05, **P<0.01 versus corresponding control value.
Western blotting: Cells in 6-well plates were lysed in 0.5 ml of lysis buffer (phosphate-buffered saline containing 1% Triton X-100, 1× Proteinase inhibitor cocktail Complete, and 1 mM PMSF) at 4° C. for 15 min. Equal quantities of protein were subjected to SDS-PAGE under reducing conditions. Following transfer to immobilon-P transfer membrane, successive incubations with a primary antibody, and a horseradish peroxidase-conjugated secondary antibody or IRDye® 680RD goat anti-rabbit/mouse secondary antibodies were carried out for 60-120 min at room temperature. The immunoreactive proteins were then detected using the ECL system or the Odyssey infrared imaging system (LI-COR). Films showing immunoreactive bands were scanned by Hp Scanjet 5590.

[2] = test system: LRP6; experiment: Wnt reporter assay in HEK293 cells after LRP6 siRNA knockdown; type: cell-based, human; conditions: CI-994 16 μM, 1011, 1015, 1023 1 μM, 24 h
Protocol: (A) structures of niciosamide and CI-994; (B) HEK293 cells were transfected with Super8XTOPFlash and β galactosidase vectors along with Wnt3A or control vector. After 24 hours incubation, cells were treated with CI-994 at the indicated concentration for 24 hr. The luciferase activity was then measured and normalized to the activity of the β-galactosidase. (C) HT1080 cells stably transduced LRP6 with HA tag were treated with niciosamide and CI-994 at the indicated concentrations for 24 h. The levels of HA-LRP6 were examined by Western blot with anti-HA antibody. (D) Western blots showing the depletion of LRP6 after 2 days of transiently transfection of 50 nM LRP6 siRNA in HEK293 cells. ON-TARGETplus double-stranded siRNA oligomers against human LRP6 and non-specific scrambled siRNA control (Stealth RNAi™ siRNA Negative Control, Med GC) were purchased from Thermo Scientific. siRNA LRP6-1, siRNA LRP6-2 and control siRNA were Thermo Scientific catalog numbers J-003845-09, J-003845-11 and 12935300, respectively. (E) HEK293 cells were transfected with LRP6 siRNAs, and after 8 h incubation were further transfected with Super8XTOPFlash construct and β galactosidase-expressing vector. After 24 h incubation, the cells were treated with CI-994 (16 μM) for 24 h. The luciferase activity was then measured and normalized to β-galactosidase activity. All the values are the average of triplicate determinations with the SD values indicated by error bars. **P<0.01 versus corresponding control value.
(A) HT1080 cells stably transduced with human LRP6 with HA tag were treated with niciosamide (1 μM) and other compounds as noted (1 μM) for 24 hr. The levels of HA-LRP6 were examined by Western blots with anti-HA antibody. All samples were also probed with anti-actin antibody to verify equal loading. This experiment is a representative of two such experiments performed with similar data. (B) N2a cells were treated with 1015 and 1011 at the indicated concentrations for 24 h. The expression levels of LRP6, β-catenin and actin were examined by Western blotting. This experiment is a representative of three such experiments performed with similar data. (C) HEK293 cells were transfected with LRP6 siRNAs, and after 8 h incubation were further transfected with Super8XTOPFlash construct and β galactosidase-expressing vector. ON-TARGETplus double-stranded siRNA oligomers against human LRP6 and non-specific scrambled siRNA control (Stealth RNAi™ siRNA Negative Control, Med GC) were purchased from Thermo Scientific. siRNA LRP6-1, siRNA LRP6-2 and control siRNA were Thermo Scientific catalog numbers J-003845-09, J-003845-11 and 12935300, respectively. […] The luciferase activity was then measured and normalized to β-galactosidase activity. […]

[3] = test system: C2C12 cells; experiment: Alkaline phosphatase (ALP) activity assay, osteoblastic differentiation of C2C12 cells; type: cell-based; conditions: 72 h; for potency in inducing C2C12 osteoblastic differentiation compared with CI-994: dose-response 0.1-12.8 μM
Protocol: C2C12 cells were seeded into 24-well plates (1×10^5 cells/well). After culture overnight, the cells were treated with a Wnt activator at 0.8 μM (A) and 1.6 μM (B) for 72 h. The ALP activity was measured by ALP assay kit from AnaSpec (AS-72146). All the values are the average of triple determinations with the s.d. indicated by error bars. *P<0.05, **P<0.01 versus corresponding control value. This experiment is a representation of two such experiments performed with similar data.
C2C12 cells were seeded into 24-well plates (1×10^5 cells/well). After culture overnight, the cells were treated with the noted compounds at 0, 0.1, 0.2, 0.4, 0.8, 1.6, 3.2, 6.4 and 12.8 μM for 72 hours. The ALP activity was measured by ALP assay kit from AnaSpec (AS-72146). All the values are the average of triple determinations with the s.d. indicated by error bars.
Alkaline phosphatase (ALP) activity assay: C2C12 cells in 24-well plates were treated with each individual compound at the indicated concentrations for 72 h. Cells were then harvested for assay of ALP activity with the ALP assay kit (AnaSpec) according to the manufacturers specifications.

Compound | BACE1 expression ([1]; 0.8 μM and 1.6 μM) | BACE1 expression ([1]; CI-994 at the indicated concentration) | effect of knockdown of LRP6 expression on the compound's effect on Wnt/β-catenin signaling [2] | ALP activity ([3]; C2C12 cells, 0.8 μM and 1.6 μM) | potency in inducing C2C12 osteoblastic differentiation compared with CI-994 [3]
Nc1ccccc1NC(=O)c1ccc(C(=O)NCCN2CCC3(CCCCC3)CC2)cc1 [Compound 1020] | significantly inhibited |  |  |  | 
CC(=O)Nc1ccc(C(=O)Nc2ccccc2N)cc1 [CI-994, 4-(acetylamino)-N-(2-aminophenyl)benzamide, reference compound] |  | deceased | significantly attenuated | significantly enhanced | 
Nc1ccccc1NC(=O)c1ccc(C(=O)NCC2CCN2C2CCCC2)cn1 (stereo not drawn) [Compound 1015] | significantly inhibited |  | significantly attenuated |  | more potent than CI-994
CC1CCCC(C)N1CCNC(=O)c1ccc(C(=O)Nc2ccccc2N)nc1 (stereo not drawn) [Compound 1011] |  |  | significantly attenuated |  | more potent than CI-994
